ChEMBL document CHEMBL1212821 (J Med Chem, 2010)

Assays:
[1] = biological target: T1, Kinesin-like protein KIF11 (Homo sapiens, UniProt P52732); test: Inhibition of human kinesin Eg5
T1 sequence (P52732 whole entry): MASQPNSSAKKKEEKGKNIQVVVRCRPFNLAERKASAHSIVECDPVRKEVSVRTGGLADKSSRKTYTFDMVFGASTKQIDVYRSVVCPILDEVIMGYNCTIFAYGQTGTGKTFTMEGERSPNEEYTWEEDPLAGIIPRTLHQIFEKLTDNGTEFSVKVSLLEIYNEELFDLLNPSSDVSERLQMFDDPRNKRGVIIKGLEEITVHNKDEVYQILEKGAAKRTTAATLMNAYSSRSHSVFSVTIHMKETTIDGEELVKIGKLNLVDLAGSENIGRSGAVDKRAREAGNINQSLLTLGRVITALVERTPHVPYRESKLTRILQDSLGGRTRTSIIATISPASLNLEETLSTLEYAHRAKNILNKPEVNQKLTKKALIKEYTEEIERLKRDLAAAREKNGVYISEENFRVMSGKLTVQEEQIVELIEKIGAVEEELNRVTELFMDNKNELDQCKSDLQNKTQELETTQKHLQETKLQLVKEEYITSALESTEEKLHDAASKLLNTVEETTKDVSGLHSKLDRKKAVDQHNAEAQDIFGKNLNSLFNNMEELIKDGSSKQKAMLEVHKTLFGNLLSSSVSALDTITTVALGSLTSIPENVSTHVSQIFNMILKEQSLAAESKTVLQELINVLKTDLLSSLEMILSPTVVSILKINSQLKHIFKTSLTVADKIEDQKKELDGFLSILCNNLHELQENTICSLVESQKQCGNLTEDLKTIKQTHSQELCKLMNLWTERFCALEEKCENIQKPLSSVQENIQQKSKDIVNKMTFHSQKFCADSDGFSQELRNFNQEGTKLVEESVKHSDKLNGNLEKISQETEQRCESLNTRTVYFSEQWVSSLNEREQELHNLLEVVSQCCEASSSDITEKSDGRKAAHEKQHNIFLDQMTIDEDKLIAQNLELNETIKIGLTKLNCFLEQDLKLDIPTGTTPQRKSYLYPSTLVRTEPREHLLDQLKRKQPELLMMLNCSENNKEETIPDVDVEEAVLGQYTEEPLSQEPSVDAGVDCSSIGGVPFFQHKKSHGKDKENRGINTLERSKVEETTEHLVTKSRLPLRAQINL

HCT-116 = test: Antiproliferative activity against human HCT116 cells after 72 hrs by Alamar blue assay
[2] = Antiproliferative activity against human hTERT-HME1 cells after 72 hrs by Alamar blue assay
BXPC-3 = test: Antiproliferative activity against human BxPC3 cells after 72 hrs by Alamar blue assay
K562 = test: Antiproliferative activity against human K562 cells after 72 hrs by Alamar blue assay
NCI-H1299 = test: Antiproliferative activity against human NCI-H1299 cells after 72 hrs by Alamar blue assay
[3] = Antiproliferative activity against human KB3-1 cells after 72 hrs by Alamar blue assay; settings: KB 3-1, 72 h
[4] = Antiproliferative activity against human KBV1 cells overexpressing MDR1 after 72 hrs by Alamar blue assay; settings: KB-V1, 72 h
[5] = Drug resistant ratio of EC50 for human KBV1 cells overexpressing MDR1 to EC50 for KB3-1 cells; type: functional, cell-based
[6] = Antiproliferative activity against human KB3-1 cells after 72 hrs by Alamar blue assay in presence of zosuquidar; settings: KB 3-1, 72 h
[7] = Antiproliferative activity against human KBV1 cells overexpressing MDR1 after 72 hrs by Alamar blue assay in presence of zosuquidar; settings: KB-V1, 72 h

Row | EC50 (HCT-116; Homo sapiens, HCT-116, 72 h) [nM] | EC50 (BXPC-3; Homo sapiens, BXPC-3, 72 h) [nM] | EC50 (K562; Homo sapiens, K562, 72 h) [nM] | EC50 (NCI-H1299; Homo sapiens, NCI-H1299, 72 h) [nM] | EC50 (HCT-116; hct-116) [nM] | EC50 (BXPC-3; bxpc-3) [nM] | EC50 (K562; k562) [nM] | EC50 (NCI-H1299; nci-h1299) [nM] | SMILES | EC50 ([2]; Homo sapiens, HME1, 72 h) [nM] | EC50 ([2]; hme1) [nM] | further results
1 |  |  |  |  |  |  |  |  | CCOC(=O)C1=C(C)NC(=S)N[C@@H]1c1cccc(O)c1 |  |  | IC50 [1]: 30000 nM
2 | 951 | 2160 | 2620 | 2390 |  |  |  |  | CC1=C(C(=O)c2ccc(F)cc2)C(c2cccc(O)c2)NC(=S)N1C (stereo unspecified) | 2540 |  | 
3 | 1290 | 2840 | 2740 | 2770 |  |  |  |  | CC1=C(C(=O)c2cccc(F)c2)C(c2cccc(O)c2)NC(=S)N1C (stereo unspecified) | 2820 |  | 
4 |  |  |  |  | 387 | 601 | 1150 | 1360 | CC1=C(C(=O)c2ccc(F)c(F)c2)C(c2cccc(O)c2)NC(=S)N1C (racemic) |  | 247 | EC50 [3]: 832 nM; EC50 [4]: 2080 nM; ratio [5]: 2.5; EC50 [6]: 800 nM; EC50 [7]: 671 nM
5 | 1810 | 2070 | 4780 | 4900 |  |  |  |  | O=C1CCCC2=C1C(c1cccc(O)c1)NC(=S)N2 (racemic) | 2440 |  | 
6 | 24200 | > 100 | > 100 | > 100 |  |  |  |  | CCOC(=O)C1=C(C)NC(=S)NC1c1cccc(O)c1 (racemic) [MONASTROL] | 45100 |  | EC50 [3]: 85100 nM; EC50 [4]: 99100 nM; ratio [5]: 1.2; EC50 [6]: 56500 nM; EC50 [7]: 45400 nM
7 |  |  |  |  | 15200 | 33700 | 26600 | 33000 | CC1=C(C(=O)c2ccc(F)c(F)c2)C(c2cccc(O)c2)NC(=S)N1C (stereo in doubt; form 1) |  | > 100 | 
8 |  |  |  |  | 1830 | 5000 | 5690 | 6890 | CC1=C(C(=O)c2ccccc2)C(c2cccc(O)c2)NC(=S)N1C (stereo in doubt; form 1) |  | 1780 | 
9 |  |  |  |  | 327 | 736 | 820 | 783 | CC1=C(C(=O)c2ccc(F)c(F)c2)C(c2cccc(O)c2)NC(=S)N1C (stereo in doubt; form 2) |  | 223 | 
10 |  |  |  |  | 6500 | 14400 | 11400 | 18100 | CC1=C(C(=O)c2ccccc2)C(c2cccc(O)c2)NC(=S)N1C (stereo in doubt; form 2) |  | > 50000 | 
11 |  |  |  |  | 1740 | 3600 | 3700 | 4610 | CC1=C(C(=O)c2ccccc2)C(c2cccc(O)c2)NC(=S)N1C (stereo in doubt; form 3) |  | 1190 | 
12 |  |  |  |  |  |  |  |  | CC[C@]1(O)C[C@@H]2CN(CCc3c([nH]c4ccccc34)[C@@](C(=O)OC)(c3cc4c(cc3OC)N(C)[C@H]3[C@@](O)(C(=O)OC)[C@H](OC(C)=O)[C@]5(CC)C=CCN6CC[C@]43[C@@H]65)C2)C1 [VINBLASTINE] |  |  | EC50 [3]: 12.6 nM; EC50 [4]: 2040 nM; ratio [5]: 162; EC50 [6]: 8.5 nM; EC50 [7]: 13 nM
